The text below walks through data of paper PMC3876027 (Journal of medicinal chemistry, 2013).

The subject of one data set is human M1-M4. The experiment in a line: human mAChR selectivity, functional assay at hM1-M4. In kind it is cell-based. To be noted: for IC50: read-out: hM1-M4 IC50, each of M1, M2, M3, M4.
The target in another data set is T1, human M5 (Homo sapiens, UniProt P08912).
T1 sequence (P08912 1-532): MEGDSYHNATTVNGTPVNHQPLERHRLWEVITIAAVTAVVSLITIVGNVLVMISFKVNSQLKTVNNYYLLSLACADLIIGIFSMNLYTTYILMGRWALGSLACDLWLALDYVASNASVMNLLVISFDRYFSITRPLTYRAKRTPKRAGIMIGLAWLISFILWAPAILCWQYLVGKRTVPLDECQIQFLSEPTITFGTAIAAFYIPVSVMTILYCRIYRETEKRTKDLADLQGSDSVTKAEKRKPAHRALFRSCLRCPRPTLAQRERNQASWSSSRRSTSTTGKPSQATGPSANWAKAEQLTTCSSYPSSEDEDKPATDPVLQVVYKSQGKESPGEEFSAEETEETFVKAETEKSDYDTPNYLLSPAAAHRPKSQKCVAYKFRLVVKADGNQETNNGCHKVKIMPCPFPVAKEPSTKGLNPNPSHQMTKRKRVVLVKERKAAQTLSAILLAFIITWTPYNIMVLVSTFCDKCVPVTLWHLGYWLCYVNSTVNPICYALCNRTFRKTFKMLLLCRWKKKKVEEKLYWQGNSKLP
The experiment in a line: functional calcium mobilization assay in CHO cells stably expressing human M5. It counts as cell-based.

Another data set has as its target T2, human M1 (Homo sapiens, UniProt P11229).
T2 sequence (P11229 1-460): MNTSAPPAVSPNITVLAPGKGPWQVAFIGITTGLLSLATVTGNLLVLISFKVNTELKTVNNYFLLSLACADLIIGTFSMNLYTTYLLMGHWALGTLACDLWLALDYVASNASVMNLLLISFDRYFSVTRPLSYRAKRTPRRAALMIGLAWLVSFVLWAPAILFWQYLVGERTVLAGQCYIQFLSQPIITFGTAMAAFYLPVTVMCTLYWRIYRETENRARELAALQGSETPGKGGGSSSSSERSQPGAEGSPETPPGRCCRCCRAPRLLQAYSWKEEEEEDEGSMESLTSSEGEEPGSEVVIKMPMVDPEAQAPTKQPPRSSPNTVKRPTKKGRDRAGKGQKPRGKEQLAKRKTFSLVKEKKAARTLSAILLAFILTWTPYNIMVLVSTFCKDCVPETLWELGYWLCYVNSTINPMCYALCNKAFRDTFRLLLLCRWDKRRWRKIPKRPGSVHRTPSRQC
The experiment in a line: HTS counter-screen in CHO cells expressing human M1. In kind it is cell-based. To be noted: confirmed HTS hit sample.

The target of the next data set is T3, human M4 (Homo sapiens, UniProt P08173).
T3 sequence (P08173 1-479): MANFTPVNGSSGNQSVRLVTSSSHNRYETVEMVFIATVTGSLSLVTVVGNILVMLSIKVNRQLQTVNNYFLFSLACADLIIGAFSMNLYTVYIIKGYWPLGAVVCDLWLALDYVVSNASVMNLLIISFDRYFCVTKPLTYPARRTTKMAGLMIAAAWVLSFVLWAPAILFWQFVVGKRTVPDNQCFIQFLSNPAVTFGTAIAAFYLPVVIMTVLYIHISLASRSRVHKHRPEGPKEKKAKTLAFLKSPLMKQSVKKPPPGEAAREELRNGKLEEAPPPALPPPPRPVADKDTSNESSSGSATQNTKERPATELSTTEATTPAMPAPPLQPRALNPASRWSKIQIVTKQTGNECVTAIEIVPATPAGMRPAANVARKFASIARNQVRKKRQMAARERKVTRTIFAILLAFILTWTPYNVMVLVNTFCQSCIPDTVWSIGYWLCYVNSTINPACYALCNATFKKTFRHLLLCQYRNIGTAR
Nature of the data set: HTS counter-screen in CHO cells expressing human M4. In kind it is cell-based. To be noted: confirmed HTS hit sample.

In a further data set the test system is rat M1-M4. The experiment in a line: rat mAChR selectivity, functional assay at rM1-M4. In kind it is cell-based.
Data set [1] deals with T4, hM5 (Homo sapiens, UniProt P08912).
T4 sequence (P08912 1-532): T1 sequence (P08912 1-532)
The experiment in a line: [3H]-NMS competition binding in membranes prepared from hM5 cells. Conditions: N=3; compared to atropine.

Data set [2] deals with T4, hM5. Nature of the data set: [3H]-NMS dissociation kinetics with hM5 cell membranes. In kind it is binding.
Data set [3] is described as follows: hepatic microsomal intrinsic clearance, rat. In kind it is in vitro ADME. To be noted: Sprague-Dawley, liver microsomes.
The nature of data set [4]: hepatic microsomal intrinsic clearance, cynomolgus monkey. It counts as in vitro ADME.
Data set [5] can be described thus: hepatic microsomal intrinsic clearance, human. It counts as in vitro ADME. Conditions: liver microsomes.
Data set [6] can be described thus: IV pharmacokinetics in male cynomolgus monkey. To be noted: plasma, 1 mg/kg. In kind it is in vivo.
A short description of data set [7]: Eurofins radioligand binding panel. To be noted: panel of 68 targets.
In another data set the target is CB1 (Homo sapiens, UniProt P21554). Nature of the data set: subsequent functional assay at CB1.

Each structure is given as a SMILES string. “Also recorded” adds a separate entry of the source.

Sequence of CB1 (P21554 whole entry, species assumed): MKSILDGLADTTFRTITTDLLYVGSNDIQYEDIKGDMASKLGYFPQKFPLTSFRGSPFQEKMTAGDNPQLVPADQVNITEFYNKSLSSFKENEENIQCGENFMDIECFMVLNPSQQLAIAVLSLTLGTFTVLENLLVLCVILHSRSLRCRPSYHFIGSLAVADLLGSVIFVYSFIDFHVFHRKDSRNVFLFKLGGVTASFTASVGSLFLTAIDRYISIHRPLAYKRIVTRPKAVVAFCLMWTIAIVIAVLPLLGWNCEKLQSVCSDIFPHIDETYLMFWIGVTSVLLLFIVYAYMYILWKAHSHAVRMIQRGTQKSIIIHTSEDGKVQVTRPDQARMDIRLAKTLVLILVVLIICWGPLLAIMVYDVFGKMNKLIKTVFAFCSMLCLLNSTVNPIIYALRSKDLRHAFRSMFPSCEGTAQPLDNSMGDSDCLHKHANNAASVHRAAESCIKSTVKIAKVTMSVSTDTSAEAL

As for `O=C(c1ccc(F)c(F)c1)N1CCN2C(=O)c3ccccc3C12c1ccccc1` (centres unmarked) [4g], the IC50 in the data set with human M1-M4 was more than 30 µM.
For the compound `O=C(c1ccc(F)c(F)c1)N1CCN2C(=O)c3ccccc3C12c1ccc(Cl)cc1` (centres unmarked) [5g], the IC50 in the data set with human M1-M4 is more than 30 µM.
Turning to `O=C(c1ccc(F)cc1)N1CCN2C(=O)c3ccccc3C12c1ccccc1` (centres unmarked) [compound 1], the 50% inhibitory concentration (IC50) on human M5 was more than 10 µM; with human M1-M4, more than 30 µM. Further, the “activity on M1” value at human M1 is “inactive”. Moreover, the “activity on M4” value on human M4 was “inactive”.
Take `O=C(c1ccc(F)c(F)c1)N1CCN2C(=O)c3ccccc3[C@@]12c1ccc(Cl)cc1` [compound 8, (S)-9b-(4-chlorophenyl)-1-(3,4-difluorobenzoyl)-2,3-dihydro-1H-imidazo[2,1-a]isoindol-5(9bH)-one]: the “activity at human M1-M4” value in the data set on human M1-M4 was “inactive”. The IC50 with human M1-M4 was more than 30 µM; with rat M1-M4 (read-out: rM1-M4 IC50, each of rat M1, M2, M3, M4) it was more than 30 µM. Further, in the data set on rat M1-M4, the “activity at rat M1-M4” value is “inactive”. For the same compound, the “competition with [3H]-NMS for binding to hM5” value at hM5 [1] was “no competition; also recorded: does not bind at the M5 orthosteric site”. In addition, the “[3H]-NMS dissociation t1/2” value at hM5 [2] (atropine (+8), N=3) was 1.15 h. Further, on hM5 [2] (hM5 cell membranes), the “effect on the dissociation rate of [3H]-NMS” value was “decreased the dissociation rate”. The CLint scaled at 1 µM in [3] worked out at 1.44 L/h/kg; in data set [5], 0.156 L/h/kg. For the same compound, the “Predicted CLhep” value in [4] (from CLint in well-stirred model, uncorrected for fraction unbound in plasma) was 0.84 L/h/kg. Further, the intrinsic clearance (CLint scaled) in [4] (liver microsomes) turned out to be 1.2 L/h/kg. For the same compound, the clearance in [6] turned out to be 0.18 L/h/kg. In addition, the “number of targets with significant binding (>50% inhibition @10 μM)” value in [7] is recorded as 1. Also, on CB1, the “functional activity at CB1” value is “no functional activity”.
